Reference: paper PMC5218480 (PLoS ONE, 2017)

Tested on: MV-4-11 cells
Assay: Gene expression microarray analysis (Affymetrix PrimeView) and GSEA
Format: cell-based, human
Set-up: RFU PODN (11730768_x_at) / Fold change /veh PODN (11730768_x_at) / RFU LINC00158 (11744669_a_at) / Fold change /veh LINC00158 (11744669_a_at) / RFU DUSP10 (11751237_a_at) / Fold change /veh DUSP10 (11751237_a_at) / RFU ID3 (11757404_x_at) / Fold change /veh ID3 (11757404_x_at) / RFU PLEKHG5 (11737974_s_at) / Fold change /veh PLEKHG5 (11737974_s_at) / RFU LRRC4B (11730491_at) / Fold change /veh LRRC4B (11730491_at) / RFU GIMAP4 (11747438_a_at) / Fold change /veh GIMAP4 (11747438_a_at) / RFU KRT8 (11758183_x_at) / Fold change /veh KRT8 (11758183_x_at) / RFU CNN1 (11734310_a_at) / Fold change /veh CNN1 (11734310_a_at) / RFU VPS37D (11726825_at) / Fold change /veh VPS37D (11726825_at) / RFU C10orf10 (11716522_x_at) / Fold change /veh C10orf10 (11716522_x_at) / RFU KIR2DL2 /// KIR2DL4 /// KIR2DL5A /// KIR2DL5B /// KIR2DS1 /// KIR2DS2 /// KIR2DS3 /// KIR2DS4 /// KIR3DL3 /// KIR3DL3 /// KIR3DS1 (11738374_at) / Fold change /veh KIR2DL2 /// KIR2DL4 /// KIR2DL5A /// KIR2DL5B /// KIR2DS1 /// KIR2DS2 /// KIR2DS3 /// KIR2DS4 /// KIR3DL3 /// KIR3DL3 /// KIR3DS1 (11738374_at) / RFU C1QL1 (11718748_at) / Fold change /veh C1QL1 (11718748_at) / RFU TMPRSS4 (11747572_a_at) / Fold change /veh TMPRSS4 (11747572_a_at) / RFU HAMP (11756126_x_at) / Fold change /veh HAMP (11756126_x_at) / RFU RNFT2 (11725882_a_at) / Fold change /veh RNFT2 (11725882_a_at) / RFU NR4A2 (11747474_a_at) / Fold change /veh NR4A2 (11747474_a_at) / RFU ABCC12 (11746883_a_at) / Fold change /veh ABCC12 (11746883_a_at) / RFU TMEM136 (11760407_x_at) / Fold change /veh TMEM136 (11760407_x_at) / RFU CLDN22 /// WWC2 (11732394_at) / Fold change /veh CLDN22 /// WWC2 (11732394_at) / RFU HLA-DPB1 (11760878_x_at) / Fold change /veh HLA-DPB1 (11760878_x_at) / RFU SPINT1 (11716480_a_at) / Fold change /veh SPINT1 (11716480_a_at) / RFU GAP43 (11754022_s_at) / Fold change /veh GAP43 (11754022_s_at) / RFU A4GNT (11735810_at) / Fold change /veh A4GNT (11735810_at) / RFU PRB3 (11715151_x_at) / Fold change /veh PRB3 (11715151_x_at) / RFU TUBB4B (11761932_at) / Fold change /veh TUBB4B (11761932_at) / RFU CAPN14 (11732068_a_at) / Fold change /veh CAPN14 (11732068_a_at) / RFU TMCC2 (11721928_a_at) / Fold change /veh TMCC2 (11721928_a_at) / RFU IRGQ (11745062_a_at) / Fold change /veh IRGQ (11745062_a_at) / RFU FAM174B (11720279_a_at) / Fold change /veh FAM174B (11720279_a_at) / RFU TMPRSS4 (11748680_a_at) / Fold change /veh TMPRSS4 (11748680_a_at) / RFU FAM212B (11763350_a_at) / Fold change /veh FAM212B (11763350_a_at) / RFU PLEKHG5 (11743358_a_at) / Fold change /veh PLEKHG5 (11743358_a_at) / RFU ZSCAN30 (11745921_a_at) / Fold change /veh ZSCAN30 (11745921_a_at) / RFU CMKLR1 (11741424_a_at) / Fold change /veh CMKLR1 (11741424_a_at) / RFU LOC101060620 /// MAPK8IP1 (11723275_at) / Fold change /veh LOC101060620 /// MAPK8IP1 (11723275_at) / RFU SPTSSB (11747773_x_at) / Fold change /veh SPTSSB (11747773_x_at) / RFU PRSS12 (11739890_at) / Fold change /veh PRSS12 (11739890_at) / RFU BIN1 (11741810_x_at) / Fold change /veh BIN1 (11741810_x_at) / RFU WNT11 (11732464_a_at) / Fold change /veh WNT11 (11732464_a_at) / RFU C10orf10 (11716521_a_at) / Fold change /veh C10orf10 (11716521_a_at) / RFU C5orf56 (11738089_at) / Fold change /veh C5orf56 (11738089_at) / RFU CYB561 (11721691_x_at) / Fold change /veh CYB561 (11721691_x_at) / RFU ANKRD19P (11752326_a_at) / Fold change /veh ANKRD19P (11752326_a_at) / RFU OR2T12 /// OR2T33 /// OR2T8 (11738714_s_at) / Fold change /veh OR2T12 /// OR2T33 /// OR2T8 (11738714_s_at) / RFU VCAN (11748164_a_at) / Fold change /veh VCAN (11748164_a_at) / RFU JSRP1 (11732532_at) / Fold change /veh JSRP1 (11732532_at) / RFU KRTAP10-11 (11738290_x_at) / Fold change /veh KRTAP10-11 (11738290_x_at) / RFU MYO3A (11730013_a_at) / Fold change /veh MYO3A (11730013_a_at) / RFU EBF3 (11725865_a_at) / Fold change /veh EBF3 (11725865_a_at) / RFU CAMK2N1 (11719241_x_at) / Fold change /veh CAMK2N1 (11719241_x_at) / RFU C5orf56 (11738088_a_at) / Fold change /veh C5orf56 (11738088_a_at) / RFU OLFML3 (11715873_a_at) / Fold change /veh OLFML3 (11715873_a_at) / RFU LOC100653217 /// NTM (11731650_a_at) / Fold change /veh LOC100653217 /// NTM (11731650_a_at) / RFU MAPK11 (11762145_a_at) / Fold change /veh MAPK11 (11762145_a_at) / RFU FIZ1 (11724087_x_at) / Fold change /veh FIZ1 (11724087_x_at) / RFU OASL (11726364_x_at) / Fold change /veh OASL (11726364_x_at) / RFU SOX15 (11748057_x_at) / Fold change /veh SOX15 (11748057_x_at) / RFU CD79A (11719716_a_at) / Fold change /veh CD79A (11719716_a_at) / RFU HIST1H1D (11736915_at) / Fold change /veh HIST1H1D (11736915_at) / RFU CASKIN2 (11723855_a_at) / Fold change /veh CASKIN2 (11723855_a_at) / RFU LOC730098 (11760151_x_at) / Fold change /veh LOC730098 (11760151_x_at) / RFU OR4N2 (11742367_at) / Fold change /veh OR4N2 (11742367_at) / RFU PRRT2 (11749266_a_at) / Fold change /veh PRRT2 (11749266_a_at) / RFU SNX32 (11753110_a_at) / Fold change /veh SNX32 (11753110_a_at) / RFU CDHR5 (11726645_a_at) / Fold change /veh CDHR5 (11726645_a_at) / RFU RCAN1 (11760418_a_at) / Fold change /veh RCAN1 (11760418_a_at) / RFU FAM167A (11723789_a_at) / Fold change /veh FAM167A (11723789_a_at) / RFU FAM26E (11764081_at) / Fold change /veh FAM26E (11764081_at) / RFU ISYNA1 (11749810_s_at) / Fold change /veh ISYNA1 (11749810_s_at) / RFU ACY1 (11761880_at) / Fold change /veh ACY1 (11761880_at) / RFU 11764098_at / Fold change /veh 11764098_at / RFU SAMD14 (11745864_x_at) / Fold change /veh SAMD14 (11745864_x_at) / RFU NPB (11741838_a_at) / Fold change /veh NPB (11741838_a_at) / RFU TMPRSS6 (11731388_a_at) / Fold change /veh TMPRSS6 (11731388_a_at) / RFU KRTAP10-2 (11738614_at) / Fold change /veh KRTAP10-2 (11738614_at) / RFU ARHGAP8 /// PRR5-ARHGAP8 (11727945_x_at) / Fold change /veh ARHGAP8 /// PRR5-ARHGAP8 (11727945_x_at) / RFU KRTAP5-7 /// NADSYN1 (11734609_at) / Fold change /veh KRTAP5-7 /// NADSYN1 (11734609_at) / RFU RASL12 (11751679_a_at) / Fold change /veh RASL12 (11751679_a_at) / RFU CDKN2B (11736163_a_at) / Fold change /veh CDKN2B (11736163_a_at) / RFU PRF1 (11729649_at) / Fold change /veh PRF1 (11729649_at) / RFU, ZNF638 /// ZNF638-IT1 / Fold change vs veh, ZNF638 /// ZNF638-IT1 / RFU, PANK3 / Fold change vs veh, PANK3 / RFU, SH3YL1 / Fold change vs veh, SH3YL1 / RFU, ZEB2 / Fold change vs veh, ZEB2 / RFU, NRIP1 / Fold change vs veh, NRIP1 / RFU, PTTG1IP / Fold change vs veh, PTTG1IP / RFU, CAPN2 / Fold change vs veh, CAPN2 / RFU, MED14 / Fold change vs veh, MED14 / RFU, SNORA58 / Fold change vs veh, SNORA58 / RFU, C1orf63 / Fold change vs veh, C1orf63 / RFU, LRRFIP1 / Fold change vs veh, LRRFIP1 / RFU, NDUFAF7 / Fold change vs veh, NDUFAF7 / RFU, SLC12A2 / Fold change vs veh, SLC12A2 / RFU, IBTK / Fold change vs veh, IBTK / RFU, ESF1 / Fold change vs veh, ESF1 / Fold change vs veh, TMEM50B / RFU, TAOK1 / Fold change vs veh, TAOK1 / RFU, ACBD3 / Fold change vs veh, ACBD3 / RFU, TMA16 / Fold change vs veh, TMA16 / RFU, RWDD3 / Fold change vs veh, RWDD3 / RFU, BCAT1 / Fold change vs veh, BCAT1 / RFU, EDEM3 / Fold change vs veh, EDEM3 / RFU, TMEM33 / Fold change vs veh, TMEM33 / RFU, WDR75 / Fold change vs veh, WDR75 / RFU, AHCTF1 / Fold change vs veh, AHCTF1 / RFU, TFRC / Fold change vs veh, TFRC / RFU, ZDHHC17 / Fold change vs veh, ZDHHC17 / RFU, NOM1 / Fold change vs veh, NOM1 / RFU, ARL8B / Fold change vs veh, ARL8B / RFU, ZBTB11 / Fold change vs veh, ZBTB11 / RFU, TAMM41 / Fold change vs veh, TAMM41 / RFU, KIAA1704 /// LOC100996395 / Fold change vs veh, KIAA1704 /// LOC100996395 / RFU, ING1 / Fold change vs veh, ING1 / RFU, TRMT61B / Fold change vs veh, TRMT61B / RFU, FUBP3 / Fold change vs veh, FUBP3 / RFU, TP53 / Fold change vs veh, TP53 / RFU, TNKS2 / Fold change vs veh, TNKS2 / RFU, ZFP14 / Fold change vs veh, ZFP14 / RFU, ACTR2 / Fold change vs veh, ACTR2 / RFU, PPP3R1 / Fold change vs veh, PPP3R1 / RFU, PIK3R1 / Fold change vs veh, PIK3R1 / RFU, HNRNPA1 / Fold change vs veh, HNRNPA1 / RFU, RNF170 / Fold change vs veh, RNF170 / RFU, ZNF28 / Fold change vs veh, ZNF28 / RFU, RNGTT / Fold change vs veh, RNGTT / RFU, OGT / Fold change vs veh, OGT / RFU, BRD1 / Fold change vs veh, BRD1 / RFU, MARS / Fold change vs veh, MARS / RFU, ZNF655 / Fold change vs veh, ZNF655 / RFU, FAHD1 / Fold change vs veh, FAHD1 / RFU, BDP1 / Fold change vs veh, BDP1 / RFU, LRRCC1 / Fold change vs veh, LRRCC1 / RFU, ARID1A / Fold change vs veh, ARID1A / RFU, ZNF146 / Fold change vs veh, ZNF146 / RFU, ZNF330 / Fold change vs veh, ZNF330 / RFU, GPN3 / Fold change vs veh, GPN3 / RFU, C9orf123 / Fold change vs veh, C9orf123 / RFU, N4BP2L2 / Fold change vs veh, N4BP2L2 / RFU, ARFIP1 / Fold change vs veh, ARFIP1 / RFU, FAM179B / Fold change vs veh, FAM179B / RFU, BCL10 / Fold change vs veh, BCL10 / RFU, UHRF1BP1L / Fold change vs veh, UHRF1BP1L / RFU, BET1 / Fold change vs veh, BET1 / RFU, CNOT2 / Fold change vs veh, CNOT2 / RFU, ZNF268 / Fold change vs veh, ZNF268 / Fold change vs veh, ZNF507 / RFU, DGCR2 / Fold change vs veh, DGCR2 / RFU, WDSUB1 / Fold change vs veh, WDSUB1 / Fold change vs veh, HSP90B1 /// MIR3652 / RFU, ADSS / Fold change vs veh, ADSS / RFU, GK / Fold change vs veh, GK / RFU, ZNF148 / Fold change vs veh, ZNF148 / RFU, TAF9 / Fold change vs veh, TAF9 / RFU, SLC1A5 / Fold change vs veh, SLC1A5 / RFU, SLMO2 / Fold change vs veh, SLMO2 / RFU, ABCC4 / Fold change vs veh, ABCC4 / RFU, LOC101060439 /// RAP1B / Fold change vs veh, LOC101060439 /// RAP1B / RFU, RFX7 / Fold change vs veh, RFX7 / RFU, GTPBP10 / Fold change vs veh, GTPBP10 / RFU, CNEP1R1 / Fold change vs veh, CNEP1R1 / RFU, BIVM-ERCC5 /// ERCC5 / Fold change vs veh, BIVM-ERCC5 /// ERCC5 / RFU, ILF3 / Fold change vs veh, ILF3 / RFU 11762660_at / Fold change /veh 11762660_at / RFU VCAN (11757783_s_at) / Fold change /veh VCAN (11757783_s_at) / RFU DDX43 (11728927_at) / Fold change /veh DDX43 (11728927_at) / RFU KRT8 (11758188_x_at) / Fold change /veh KRT8 (11758188_x_at) / RFU NKD1 (11759106_at) / Fold change /veh NKD1 (11759106_at) / RFU SRD5A1 (11742802_a_at) / Fold change /veh SRD5A1 (11742802_a_at) / RFU TPSAB1 /// TPSB2 (11721975_s_at) / Fold change /veh TPSAB1 /// TPSB2 (11721975_s_at) / RFU GSTM3 (11746129_a_at) / Fold change /veh GSTM3 (11746129_a_at) / RFU IL23R (11737362_x_at) / Fold change /veh IL23R (11737362_x_at) / RFU TMEM51 (11727254_a_at) / Fold change /veh TMEM51 (11727254_a_at) / RFU PIWIL2 (11732686_x_at) / Fold change /veh PIWIL2 (11732686_x_at) / RFU ORM1 (11744905_x_at) / Fold change /veh ORM1 (11744905_x_at) / RFU CCDC152 (11743942_at) / Fold change /veh CCDC152 (11743942_at) / RFU ECM1 (11717891_a_at) / Fold change /veh ECM1 (11717891_a_at) / RFU IL23R (11748794_a_at) / Fold change /veh IL23R (11748794_a_at) / RFU TNFAIP8L3 (11732012_x_at) / Fold change /veh TNFAIP8L3 (11732012_x_at) / RFU MBOAT4 (11741988_at) / Fold change /veh MBOAT4 (11741988_at) / RFU 11764193_at / Fold change /veh 11764193_at / RFU TMEM53 (11763286_at) / Fold change /veh TMEM53 (11763286_at) / RFU MAGEB2 (11727129_at) / Fold change /veh MAGEB2 (11727129_at) / RFU TMEM200A (11744735_a_at) / Fold change /veh TMEM200A (11744735_a_at) / RFU CCDC152 (11751479_a_at) / Fold change /veh CCDC152 (11751479_a_at) / RFU FAM211A (11726209_a_at) / Fold change /veh FAM211A (11726209_a_at) / RFU RGS16 (11746705_a_at) / Fold change /veh RGS16 (11746705_a_at) / RFU VCAN (11755009_s_at) / Fold change /veh VCAN (11755009_s_at) / RFU RHOB (11743442_s_at) / Fold change /veh RHOB (11743442_s_at) / RFU RGS16 (11720943_a_at) / Fold change /veh RGS16 (11720943_a_at) / RFU RGS16 (11720944_at) / Fold change /veh RGS16 (11720944_at) / RFU, VPS4B / Fold change vs veh, VPS4B / RFU, CREB1 / Fold change vs veh, CREB1 / RFU, DNAJC13 / Fold change vs veh, DNAJC13 / RFU, GNAQ / Fold change vs veh, GNAQ / RFU, CDK5R1 / Fold change vs veh, CDK5R1 / RFU, ZRANB3 / Fold change vs veh, ZRANB3 / RFU, CUL4A / Fold change vs veh, CUL4A / RFU, CCNY / Fold change vs veh, CCNY / RFU, UFL1 / Fold change vs veh, UFL1 / RFU, COG3 / Fold change vs veh, COG3 / RFU, DIAPH2 / Fold change vs veh, DIAPH2 / RFU, SKA2 / Fold change vs veh, SKA2 / RFU, AFF3 / Fold change vs veh, AFF3 / RFU, LMF1 / Fold change vs veh, LMF1 / RFU, IPO11 / Fold change vs veh, IPO11 / RFU, DFFB / Fold change vs veh, DFFB / RFU, FOXP1 / Fold change vs veh, FOXP1 / RFU, CARD8 / Fold change vs veh, CARD8 / RFU, STRN3 / Fold change vs veh, STRN3 / RFU, ADK / Fold change vs veh, ADK / RFU, RASSF2 / Fold change vs veh, RASSF2 / RFU, WIPF1 / Fold change vs veh, WIPF1 / RFU, LARP1B / Fold change vs veh, LARP1B / RFU, RASA1 / Fold change vs veh, RASA1 / RFU, RB1 / Fold change vs veh, RB1 / RFU, PPFIA1 / Fold change vs veh, PPFIA1 / RFU, MAT2A / Fold change vs veh, MAT2A / RFU, CCT5 / Fold change vs veh, CCT5 / RFU, WDR92 / Fold change vs veh, WDR92 / RFU, CUX1 / Fold change vs veh, CUX1 / RFU, TTC7A / Fold change vs veh, TTC7A / RFU, TMEM135 / Fold change vs veh, TMEM135 / RFU, DEPTOR / Fold change vs veh, DEPTOR / RFU, CPM / Fold change vs veh, CPM / RFU, DNAJB6 / Fold change vs veh, DNAJB6 / RFU, CACNA2D3 / Fold change vs veh, CACNA2D3 / RFU, DTX4 / Fold change vs veh, DTX4 / RFU, TFCP2 / Fold change vs veh, TFCP2 / RFU, GMCL1 /// GMCL1P1 / Fold change vs veh, GMCL1 /// GMCL1P1 / RFU, AEBP2 / Fold change vs veh, AEBP2 / RFU, SNHG1 /// SNORD22 /// SNORD25 /// SNORD26 /// SNORD27 /// SNORD28 /// SNORD29 /// SNORD31 / Fold change vs veh, SNHG1 /// SNORD22 /// SNORD25 /// SNORD26 /// SNORD27 /// SNORD28 /// SNORD29 /// SNORD31 / Fold change (Aza/veh), C12orf56 (ProbeSet 11735607_a_at) / Fold change (ACY-1035/veh), C12orf56 (ProbeSet 11735607_a_at) / Fold change (Aza/veh), FGFR1OP (ProbeSet 11751329_s_at) / Fold change (ACY-1035/veh), FGFR1OP (ProbeSet 11751329_s_at) / Fold change (Aza/veh), VPS36 (ProbeSet 11739960_a_at) / Fold change (ACY-1035/veh), VPS36 (ProbeSet 11739960_a_at) / RFU SYPL1 (11715823_x_at) / Fold change /veh SYPL1 (11715823_x_at) / RFU IGFBP7 (11715501_s_at) / Fold change /veh IGFBP7 (11715501_s_at) / RFU REEP3 (11722064_at) / Fold change /veh REEP3 (11722064_at) / RFU IGLL1 (11728026_x_at) / Fold change /veh IGLL1 (11728026_x_at): dose or concentration left out as unconfirmed
Conditions: ProbeSet 11758440_s_at; LIST B

Nc1ncn([C@@H]2O[C@H](CO)[C@@H](O)[C@H]2O)c(=O)n1 [azacitidine]
RFU, RFX7: 45.74 RFU
